Assay results: article PMC12362618, “Development of the First Small-Molecule Inhibitor Targeting Oncostatin M for Treatment of Breast Cancer” (Journal of Medicinal Chemistry, 2025)
Where “and” joins values, the source holds several entries; their conditions need not be identical. Equal entries are not always repeated. Entries after “also recorded” stand apart in the source; their conditions may differ. Where two headings read alike, the source gives them in different places.

Columns and labels:
[1] = molecular target: T1, 15N OSM (Homo sapiens, UniProt P13725); assay: 1H,15N HSQC NMR chemical shift perturbation titration; format: binding; details: 100 μM 15N OSM; residues Asp87, Gln90, Arg91, Leu92 at or near site III
T1 construct: ^15N-isotope-labeled OSM^1-187 protein was titrated individually with each of the SMIs; made in house
T1 sequence (P13725 26-212): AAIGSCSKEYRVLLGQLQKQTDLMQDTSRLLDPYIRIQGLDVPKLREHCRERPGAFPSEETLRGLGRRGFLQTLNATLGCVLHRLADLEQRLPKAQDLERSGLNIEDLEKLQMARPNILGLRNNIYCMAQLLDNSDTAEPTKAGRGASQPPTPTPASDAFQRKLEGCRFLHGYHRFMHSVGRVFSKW
Procedure: Protein was prepared and chemical shift perturbation (CSP) experiments were conducted as previously described by Mass et al. For SMI inhibitor titration studies, in a 5 mm NMR tube, 600 μL of a 100 μM sample of ^15N OSM in NMR buffer (50 mM sodium phosphate (pH 6.6), 100 mM sodium chloride, and 5% D2O) was titrated with a 20 mM stock solution of SMI in d6-dimethyl sulfoxide. The SMI stock solutions were added in 0.75–4 μL increments to a final concentration of 260 μM (SMI-10B) or 200 μM (SMI-10B13) and final volumes of 636 μL (SMI-10B) and 614.25 μL (SMI-10B13). Titration points for SMI-10B were: 0, 20, 40, 60, 80, 100, 140, 180, 220, and 260 μM. Titration points for SMI-10B13 were: 0, 0.5, 1.0, 6.0, 10, 20, 30, 40, 50, 60, and 200 μM.

[2] = tested on: T47D and MCF-7 human breast cancer cells; assay: MTS cell viability assay; format: cell-based; details: T47D and MCF-7; 100 μM to 0.1 nM, 24 h
Procedure: Cell viability was assessed using the CellTiter 96 AQueous One Solution Cell Proliferation Assay (Promega, cat. no. G3580), following the manufacturer’s instructions. Briefly, T47D and MCF-7 human breast cancer cells were seeded in 96-well plates at a density of 10,000 cells/well in 100 μL of complete growth medium and allowed to adhere overnight. Cells were then treated with a serial dilution (100 μM to 0.1 nM) of SMI-10B, SMI-10B13, Temozolomide (positive control), or vehicle (DMSO) for 24 h. Following treatment, 20 μL of MTS reagent was added directly to each well, and plates were incubated at 37 °C in a humidified incubator with 5% CO2 and imaged after 1 h of incubation. Absorbance was measured at 490 nm by using a microplate reader. Cell viability was expressed as a percentage relative to the vehicle-treated controls, and experiments were performed in triplicate.

[3] = tested on: OSM-induced pSTAT3 in T47D human breast cancer cells; assay: pSTAT3 ELISA in T47D cells treated with OSM ± SMI; format: cell-based; details: for IC50: Homo sapiens
Procedure: To test the effect of SMIs in vitro, each SMI was incubated with OSM for a period of 1 h at 37 °C, and T47D and MDA-MB-231 human breast cancer cell lines were subsequently treated with OSM (10 ng/mL) and/or SMI-10 (10 μM) analogs for 30 min and measured for pSTAT3 levels via ELISA. The results of these assays are presented graphically in Figure and, for T47D cells, in Table as a percentage of reduction from +OSM alone. For phospho-STAT3 (pSTAT3) ELISAs, T47D MDA-MB-231, and MCF-7 cells were seeded in 12- or 24-well plates at 70–75% confluency and allowed to adhere overnight, after which cells were serum-starved with serum-free RPMI-1640 for 4 h. SMIs (10 μM in DMSO or serially diluted to specified concentrations from a 100 mM stock in DMSO) and human recombinant OSM (10 ng/mL; PeproTech; #300–10T-10UG) were incubated in serum-free RPMI-1640 medium for 1 h. After incubation, the SMI-10 analogs or SMI-10B13 and OSM were added to the serum-starved cells for 30 min. Immediately afterward, the cells were lysed using 1x PathScan Sandwich ELISA Lysis Buffer (Cell Signaling Technology; #7018S), collected, and stored at −20 °C. Lysates were analyzed for pSTAT3 levels using either the PathScan Phospho-STAT3 (Tyr705) Sandwich ELISA Antibody Pair kit (Cell Signaling Technology; #7146) or Human/Mouse Phospho-STAT3 (Y705) DuoSet IC ELISA (R&D Systems; DYC4607B), according to manufacture’s protocol. pSTAT3 expression was measured with absorbance at 450 nm and quantified by comparison relative to OSM-induced pSTAT3 levels. To calculate an IC50 for SMI-10B13, a standard curve was generated as described in the DuoSet IC ELISA datasheet to determine the concentration of pSTAT3.

[4] = molecular target: T2, OSM (Homo sapiens, UniProt P13725); assay: Fluorescence quenching assay of SMI binding to OSM; details: average of three independent replicates, errors at 95% confidence level, read-out: KD (OSM-SMI dissociation constant)
T2 sequence (P13725 26-252): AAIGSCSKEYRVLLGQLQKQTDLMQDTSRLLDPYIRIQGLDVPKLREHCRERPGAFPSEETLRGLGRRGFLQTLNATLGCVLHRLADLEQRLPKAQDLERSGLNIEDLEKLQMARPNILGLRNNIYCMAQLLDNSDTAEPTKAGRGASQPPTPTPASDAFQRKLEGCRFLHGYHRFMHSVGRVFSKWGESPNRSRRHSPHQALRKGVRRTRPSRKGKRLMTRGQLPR
Procedure: To perform fluorescence quenching assays, 2 mL of 1 μM OSM solution in polymethylmethacrylate cuvettes was prepared by dilution of a concentrated stock solution of recombinant OSM with buffer solution (100 mM sodium chloride, 50 mM sodium phosphate, 50 mM freshly added DTT, pH = 6.6). Cuvettes were titrated with 5 μL increments of a 1 mM small molecule stock solution in DMSO, with a cuvette titrated with an equivalent volume of DMSO as a control. […] In cases where little to no significant quenching was observed, the titration was supplemented with 2.5 μL increments of a 10 mM small molecule stock solution to increase the concentration delivered. The fluorescence intensity measurements were obtained on a Cary Eclipse spectrofluorometer equipped with a Xenon arc lamp. Fluorescence intensities were measured by exciting at 280 nm (4 nm slit width) and recording the emission from 345 to 355 nm with a photomultiplier tube voltage of 700 V, unless otherwise noted. Each titration point was normalized to OSM’s native fluorescence intensity, corrected by adding the decrease in fluorescence intensity caused by dilution with DMSO, and the average value of the three replicates for each point was plotted against concentration of small molecule delivered and fit to a modified Stern–Volmer function as described by Charlier and Plapp. Binding affinity (K D) values were obtained […] from the fitting routine. All curve-fitting analysis was performed in GraphPad Prism 8.0.

[5] = T47D, SMI 10 μM + OSM 10 ng/mL, 30 min, ELISA, relative to +OSM, no-treatment blank subtracted

| SMILES | Chemical shift perturbation of 15N OSM on titration [1] | Cytotoxicity / cell viability via MTS assay [2] | IC50 ([3]; Figure S3 graph A (T47D by order), four parameter nonlinear regression, given as negative log value, read-out: LogIC50 (graph A) (converted)) | IC50 ([3]; T47D cells, ELISA, read-out: IC50 for inhibition of STAT3 phosphorylation) | Relative pSTAT3 Levels (Table 2, SMI-10B analogs) [3, 5] | Relative pSTAT3 Levels (Table 2, SMI-10B analogs) ([3]; T47D, SMI 10 μM + OSM 10 ng/mL, 30 min, ELISA, relative to +OSM, no-treatment blank subtracted, listed as 10B13) | Kd [4] | Relative pSTAT3 Levels (Table 1, SMI-10A-10J) [3, 5] | Inhibition of OSM-induced pSTAT3 via ELISA ([3]; T47D, SMI 10 μM, OSM 10 ng/mL, 30 min) |
| --- | --- | --- | --- | --- | --- | --- | --- | --- | --- |
| O=C(O)/C=C/c1cc(-c2ccc3cc[nH]c3c2)c(-c2ccc3cc[nH]c3c2)o1 [SMI-10B13, (E)-3-(4,5-di(1H-Indol-6-yl)furan-2-yl)acrylic Acid] | binding to the same site as SMI-10B with a higher affinity | Minimal toxicity; also recorded: minimal to no cytotoxicity at high concentrations | 0.136 µM | 0.136 µM | 32.7% | 32.73% | ~7 µM and 6.6 µM |  |  |
| O=C(O)/C=C/c1cc(-c2ccc3c(c2)OCO3)c(-c2ccc3c(c2)OCO3)o1 [SMI-10B, (E)-3-(4,5-Bis(benzo[d][1,3]dioxol-5-yl)furan-2-yl)acrylic acid] | clear shifts in the fast exchange regime | Minimal toxicity; also recorded: minimal to no cytotoxicity at high concentrations |  |  | 30.14% |  | 12.9 ± 1.5 µM | 12.8% | capable of inhibiting OSM-induced pSTAT3 |
